{
  "source": "patent US12378208B2",
  "about": "“N-substituted oseltamivir derivatives with antimicrobial activity” (THE HONG KONG POLYTECHNIC UNIVERSITY, priority 2019, dated 2025)",
  "key": {"[1]": {"molecular_target": "NA from A/H3N2 (Influenza A virus, UniProt O91745)", "sequence (O91745 whole entry, looked up)": "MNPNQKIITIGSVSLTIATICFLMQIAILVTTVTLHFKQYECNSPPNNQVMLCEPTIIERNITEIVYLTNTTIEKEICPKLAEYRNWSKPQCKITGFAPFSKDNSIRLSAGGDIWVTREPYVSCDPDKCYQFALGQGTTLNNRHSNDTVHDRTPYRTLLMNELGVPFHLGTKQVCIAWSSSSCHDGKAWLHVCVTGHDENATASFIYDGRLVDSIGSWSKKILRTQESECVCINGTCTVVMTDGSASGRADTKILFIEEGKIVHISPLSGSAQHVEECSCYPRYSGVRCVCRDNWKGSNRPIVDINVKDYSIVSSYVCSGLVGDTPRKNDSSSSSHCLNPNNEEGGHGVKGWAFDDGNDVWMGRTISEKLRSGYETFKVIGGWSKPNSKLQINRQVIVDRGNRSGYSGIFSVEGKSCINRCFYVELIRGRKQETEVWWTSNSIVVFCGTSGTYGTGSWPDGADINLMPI", "test": "biochemical", "assay_type": "biochemical, seasonal A/H3N2", "settings": "for IC50: Table 2, Example 32"}, "[2]": {"test_system": "influenza A virus A/OK/447/08 (H1N1)", "test": "Plaque assay in MDCK cells", "assay_type": "cell-based", "settings": "for plaque count: two concentrations; for plaque size compared with 0.2 nM oseltamivir: both compounds at both concentrations vs 0.2 nM oseltamivir"}, "[3]": {"test_system": "influenza B virus (IBV) 12v28393", "test": "Plaque assay in MDCK cells", "assay_type": "cell-based", "settings": "for plaque size: MDCK, day 3, vs DMSO vehicle, both concentrations"}, "[4]": {"test_system": "IBV 12v33261", "test": "Plaque assay in MDCK cells", "assay_type": "cell-based, influenza B virus", "settings": "for plaque size: MDCK, day 3, vs DMSO vehicle, both concentrations"}, "[5]": {"test_system": "IBV 12v33280", "test": "Plaque assay in MDCK cells", "assay_type": "cell-based, influenza B virus", "settings": "for plaque size: MDCK, day 3, vs DMSO vehicle, both concentrations"}, "[6]": {"molecular_target": "neuraminidase (Influenza A virus, UniProt O91745)", "sequence (O91745 whole entry)": "as the sequence (O91745 whole entry, looked up) above", "settings": "previous studies (Ye et al., 2019); read-out: half maximal inhibitory concentration (IC50); cited from earlier work"}, "[7]": {"settings": "3.2 nM S22 vs 0.2 nM oseltamivir (p<0.01)"}},
  "data": [
    {"compound": "CCC(CC)O[C@@H]1C=C(C(=O)O)C[C@H](NCc2noc(-c3ccco3)n2)[C@H]1NC(C)=O", "note": "[Compound S7, (3R,4R,5S)-4-acetamido-5-(((5-(furan-2-yl)-1,2,4-oxadiazol-3-yl)methyl)amino)-3-(pentan-3-yloxy)cyclohex-1-ene-1-carboxylic acid]", "values": [
      {"measurement": "% Inhibition (1 nM)", "setting": "[1]", "value": "28.1 ± 1.7", "unit": "%"},
      {"measurement": "IC50", "setting": "[1]", "value": "1.92 ± 0.24", "unit": "nM"},
      {"measurement": "plaque count", "setting": "[2]", "value": "not plaque count"},
      {"measurement": "plaque size compared with 0.2 nM oseltamivir", "setting": "[2]", "value": "equally well"},
      {"measurement": "inhibition compared with 3.2 nM S22", "setting": "[3]; 3.8 nM S7 vs 3.2 nM S22 (p<0.05)", "value": "extra benefit"},
      {"measurement": "plaque size", "setting": "[3]", "value": "significantly reduce the plaque size"},
      {"measurement": "plaque size", "setting": "[4]", "value": "significantly reduce the plaque size"},
      {"measurement": "plaque size", "setting": "[5]", "value": "significantly reduce the plaque size"},
      {"measurement": "IC50", "setting": "[6]", "value": 1.9, "unit": "nM"}
    ]},
    {"compound": "CCC(CC)O[C@@H]1C=C(C(=O)O)C[C@H](NCc2ccc(-c3c(C)noc3C)o2)[C@H]1NC(C)=O", "note": "[Compound S22, (3R,4R,5S)-4-acetamido-5-(((5-(3,5-dimethylisoxazol-4-yl)furan-2-yl)methyl)amino)-3-(pentan-3-yloxy)cyclohex-1-ene-1-carboxylic acid]", "values": [
      {"measurement": "% Inhibition (1 nM)", "setting": "[1]", "value": "30.2 ± 1.5", "unit": "%"},
      {"measurement": "IC50", "setting": "[1]", "value": "1.63 ± 0.16", "unit": "nM"},
      {"measurement": "plaque count", "setting": "[2]", "value": "not plaque count"},
      {"measurement": "plaque size compared with 0.2 nM oseltamivir", "setting": "[2]", "value": "equally well"},
      {"measurement": "plaque size compared with 0.2 nM oseltamivir", "setting": "[3]; [7]", "value": "better inhibition effect"},
      {"measurement": "plaque size", "setting": "[3]", "value": "significantly reduce the plaque size"},
      {"measurement": "plaque size compared with 0.2 nM oseltamivir", "setting": "[4]; 3.2 nM S22 vs 0.2 nM oseltamivir (p<0.05)", "value": "better inhibition effect"},
      {"measurement": "plaque size", "setting": "[4]", "value": "significantly reduce the plaque size"},
      {"measurement": "plaque size compared with 0.2 nM oseltamivir", "setting": "[5]; 1.6 nM S22 vs 0.2 nM oseltamivir (p<0.05)", "value": "extra benefit"},
      {"measurement": "inhibition compared with 1.9 nM S7", "setting": "[5]; 1.6 nM S22 vs 1.9 nM S7 (p<0.05)", "value": "better"},
      {"measurement": "plaque size compared with 0.2 nM oseltamivir", "setting": "[5]; [7]", "value": "better inhibition effect"},
      {"measurement": "inhibition compared with 1.9 nM S7", "setting": "[5]; 3.2 nM S22 vs 1.9 nM S7 (p<0.01)", "value": "better"},
      {"measurement": "plaque size", "setting": "[5]", "value": "significantly reduce the plaque size"},
      {"measurement": "IC50", "setting": "[6]", "value": 1.6, "unit": "nM"}
    ]}
  ]
}
